# Experimental data reported in patent EP0341300B1, “STIMULATION OF STEM CELL GROWTH BY THE BRYOSTATINS” (priority 1987, dated 1989).
# Entries after “also recorded” stand apart in the source; their conditions may differ.
# Columns and labels:
# [1] = test system: light-density, adherence-depleted normal human bone marrow cells; test: Granulocyte-macrophage colony formation (CFU-GM) in agar culture; assay type: cell-based
# Description: For determining effective concentrations of bryostatins for granulocyte and macrophage colony formation, light density, adherence-depleted human bone marrow cells can be obtained. The cells can be suspended in a suitable medium, such as supplemented McCoy's 5A medium containing 0.3% agar and plated in 35 mm petri dishes as described in Pike et al, Journal of Cell Physiology, Vol. 76, pp. 77-83, 1970. For the bryostatins which have been tested and found to be effective, i.e., 1, 3, 8 and 9, maximum stimulatory concentrations are between about 10⁻⁷M and 10⁻¹⁰M.
# Granulocyte-macrophage colony-forming unit (CFU-GM) colonies were enumerated from light-density, adherence-depleted normal human bone marrow cells. Cells were suspended in supplemented McCoy's 5A medium containing 0.3% agar and plated in 35-mm Petri dishes as described in Pike et al, J. Cell Physiol., Vol. 76, pp. 77-83, 1970. Colonies were enumerated following incubation of bone marrow with cells with rHGM-CSF at 50 ng/ml (Genetics Institute) or bryostatin 1 (●) bryostatin 3(o), bryostatin 8(♢), bryostatin 9(+), or bryostatin 13 (▲) at the concentrations indicated. After 14 days of culture at 37°C in a humidified atmosphere containing 7.5% CO₂, colonies of greater or equal to 50 cells were scored. Representative results from one of several experiments are reported as the mean colony number from quadruplicate samples. SEM is within 10% of the mean number.
# [2] = test system: P388 lymphocytic leukemia line; conditions: reported by others (Pettit et al); test system not named; cited from earlier work
# [3] = test system: Normal human peripheral blood neutrophils; test: Neutrophil chemiluminescence with luminol; assay type: cell-based; conditions: 15 min incubation, then 10 uM luminol; rhGM-CSF at 50 ng/ml
# Description: To determine the effective amount of bryostatin for neutrophil activation, normal human peripheral blood neutrophil cells can be purified on a density gradient such as a Ficoll gradient. Other immune regulatory cells, such as T-lymphocytes and macrophages can be isolated by standard and known techniques. The neutrophils can be suspended in Dulbecco's phosphate-buffered saline supplemented with calcium and magnesium. One way to monitor neutrophil activation is to observe chemiluminescence. The neutrophils can be incubated for about fifteen minutes with the bryostatin. Then luminol (5-amino-2-3-dihydro-1, 4-phthalazinedione) can be added to a concentration of about 10 uM. Chemiluminescence can be measured in a luminometer as described in Allen et al, Biochemistry and Biophysics Research Communications, Vol. 69, pp. […], 1976.
# Normal human peripheral blood neutrophils were highly purified on a double Ficoll density gradient and suspended in Dulbecco's phosphate-buffered saline supplemented with Ca²⁺ and Mg²⁺. First, substances to be tested were incubated with the neutrophils for 15 min. At this point 10 uM luminol (5-amino-2, 3-dihydro-1, 4-phtyalazinedione) was added to each sample. The generation of chemiluminescence was measured in a luminometer at 1.25 min intervals for up to 20 min.
# [4] = test system: early BFU-E and late CFU-E human erythroid progenitors; test: Erythroid progenitor assay, plasma-clot method with erythropoietin; assay type: cell-based; conditions: plasma clots, optimal erythropoietin
# Description: Amounts of bryostatin which are effective for stimulating hematopoiesis or neutrophil and other immune regulatory cell activation, can be determined using any of the assays known in the art. For example, early and late erythrocyte progenitors can be enumerated using the plasma clot method described in McLeod et al, Blood, Vol. 44, p. 517, 1974. Stimulation of such erythrocyte progenitors requires the presence of erythropoietin.
# Assays for both early (BFU-E) and late (CFU-E) progenitors were enumerated as described in McLeod et al, Blood, Vol. 44, p. 517 (1974) using the plasma-clot method and optimal concentrations of erythropoietin. Bryostatin 1 stimulated both early BFU-E and late CFU-E human erythroid progenitors growth in plasma clots. The maximal stimulatory concentration was between 1 and 10 pM, with an inhibitory effect noted at concentrations above 1 nM.
# [5] = test system: multi-potential hematopoietic progenitors; test: Continuous 7-day subcutaneous infusion by osmotic micropump in mice; assay type: in vivo, BDF₁ mice
# Description: A dose-response stimulatory effect on multi-potential hematopoietic progenitors was noted. The administration of 144 ug/kg/d (max. dose) increased CFU-S, CFU-GM and BFU-E compared to control animals infused with vehicle alone. CFU-S from spleen cells of treated animals were increased 2-fold (19 vs. 39 colonies per 10⁶ cells injected), while bone marrow CFU-S was not altered. Likewise, CFU-GM colonies from spleen cells were increased 3.6-fold (52 vs. 188 per 10⁶ cells injected), and increased 2-fold (73 vs. 150 per 10⁵ nuc. cells) in bone marrow.
# normal human bone marrow = test: Clone transfer assay (growth of transferred clones in secondary plates); assay type: cell-based; conditions: primary culture 10 nM bryostatin 1 for 4 days; secondary plates bryostatin 1 10 nM or rhGM-CSF 50 ng/ml, 10 further days
# Description: Assays were performed essentially as described in Metcalf et al, Blood, Vol. 67, pp. 37-45, 1986. Briefly, cultures of normal human bone marrow were initiated in medium containing 10 nM bryostatin 1. Following 4 days of growth, clones of 4-8 cells were carefully removed using a glass pipette to avoid contamination by surrounding cells and transferred to secondary plates containing either rhGM-CSF (50 ng/ml) or bryostatin 1 (10 nM) as the source of CSF). After an additional 10 days of culture, the number of clones that had proliferated to form a colony of 40 cells or more was determined. Further growth was not observed in colonies transferred to plates containing no added CSF. (See Figure 3.)
# Each symbol (●) represents a colony. Its height in each column is proportional to the number of cells in that colony. The data directly above sections G of the column represent colonies composed entirely of granulocytic cells. The data above sections GM in the column represent colonies composed of both granulocytic and monocytic cells. No colonies in secondary plates were detected that were composed of macrophage-monocyte cells only. The numerator in the fraction at the top of each column represents the number of colonies that developed in the secondary plate, and the denominator represents the total number of clones transferred.
# K562 target cells = test: Activated neutrophil cytotoxicity, 51Cr release; assay type: cell-based, human; conditions: for % specific lysis, 7.5 / % specific lysis, column 15 / % specific lysis, column 30: Bryostatin alone (no neutrophils)
# Description: Alternatively, neutrophil activation can be assayed using a cytoxicity assay. Purified neutrophils can be incubated at a density of about 3x10⁶ cells per ml with various concentrations of bryostatin. The cells can be washed and added to radiolabelled target cells. K562 tumor cells and ⁵¹ Cr-label can be used to measure cytoxicity. The target cells are preincubated with the radiolabelled substance to effect uptake of the radiolabel. The target cells can be mixed with the neutrophils at various effector to target cell ratios, such as between about 50:1 and 5:1, Release of label from the target cells can be measured either by assaying the supernatant or the cells after centrifugation. Of course, other methods known in the art, such as using other assays of immune regulatory cell cytotoxicity can be used. Bryostatin 1 has activity toward neutrophils at about 10⁻¹⁰ to 10⁻⁷M, with a maximum activation effect on neutrophil cytotoxicity of K562 target cells at a concentration of about 10⁻⁷M.
# Furthermore, activation of neutrophil cytotoxicity, as measured by killing of ⁵¹Cr-labeled K562 tumor target cells was also sitmulated by bryostatin 1 (Table 1). Neutrophils were purified as described above. Neutrophils were incubated at a density of 3 x 10⁶ cells per ml first with various concentrations of bryostatin 1 (0.1 uM to 0.1 nM), rhGM-CSF (50 ng/ml), or in medium alone for 2 hr. Following two washes, the cells were added to the ⁵¹Cr-labeled K562 target cells at effector/target cell ratios of 30:1, 15:1, or 7.5:1 as indicated. Control plates containing ⁵¹Cr-labeled K562 cells and either bryostatin or medium alone were evaluated to determine the spontaneous release of isotope. The plates containing the cells were centrifuged at 250 x g for 2 min and then incubated for 3 hrs at 37°C. One hundred microliters of the supernatant was harvested from each well, and the amount of radioactivity present was determined in a gamma scintillation counter. The maximum release of ⁵¹Cr was determined by assaying supernatant obtained from wells in which the cells were completely lysed with 6 M HCl.
# Assessment of neutrophil cytotoxicity induced by bryostatin 1. K562 cells were labeled with […] and adjusted to a concentration of 10³ cells per ml in RPMI 1640 medium. Activated neutrophil cytotoxicity was determined. The results are expressed as the percentage of specific isotope released at the indicated effector/target cell ratio calculated as follows: % specific lysis = [(mean cpm of sample - mean cpm spontaneously released)/(mean cpm maximal -mean cpm spontaneously released)] x 100 [formula] . [formula] Maximum induced cpm released as 7364 ± 149. The maximum mean % specific lysis from triplicate determinations from a representative experiment is shown.
# [6] = neutrophils plus 10^-7M, 0.1 µM
# [7] = neutrophils plus 10^-8M, 0.01 µM
# [8] = neutrophils plus 10^-9M, 0.001 µM
# [9] = neutrophils plus 10^-10M, 0.0001 µM
molecule,measurement,setting,value
"CCCC(=O)O[C@H]1C[C@H]2C[C@@H](O)CC(=O)O[C@@H]([C@H](C)O)C[C@@H]3C/C(=C\C(=O)OC)C[C@@](O)(O3)C(C)(C)/C=C/[C@H]3C/C(=C\C(=O)OC)C[C@@H](C[C@](O)(O2)C1(C)C)O3 [Bryostatin 13, bryostatin 13]",granulocyte-macrophage colony stimulating activity (in words),[1]; 14 days of culture,totally inactive; also recorded: completely inactive
same,antineoplastic activity,[2],retain potent antineoplastic activity
same,activation of neutrophil chemiluminescence,[3],not
"CCCC(=O)O[C@H]1/C(=C/C(=O)OC)C[C@H]2C[C@H]([C@@H](C)O)OC(=O)C[C@H](O)C[C@@H]3C[C@H](OC(C)=O)C(C)(C)[C@](O)(C[C@@H]4C/C(=C/C(=O)OC)C[C@H](/C=C/C(C)(C)[C@]1(O)O2)O4)O3 [Bryostatin 9, bryostatin 9]",granulocyte-macrophage colony stimulating activity (in words),[1]; 14 days of culture,much less potent stimulator; also recorded: weaker stimulator; also recorded: only a weak stimulator
bryostatin 8,lowest concentration at which colony stimulating activity was observed,[1]; 14 days of culture,10 pM
"CCC/C=C/C=C/C(=O)O[C@H]1[C@H]2C=C3C[C@H]([C@@H](C)O)OC(=O)C[C@H](O)C[C@@H]4C[C@H](OC(C)=O)C(C)(C)[C@](O)(C[C@@H]5C/C(=C\C(=O)OC)C[C@H](/C=C/C(C)(C)[C@]1(OC(=O)C2)O3)O5)O4 [Bryostatin 3, bryostatin 3]",granulocyte-macrophage colony stimulating activity (in words),[1]; 14 days of culture,clearly less potent than bryostatin 1 or 8
bryostatin 1,concentrations with an inhibitory effect on erythroid progenitors,[4],above 1 nM
same,CFU-GM colonies from spleen cells,"[5]; 144 ug/kg/d, 7 days",188 per 10⁶ cells injected
same,CFU-GM colonies in bone marrow,"[5]; 144 ug/kg/d, 7 days",150 per 10⁵ nuc. cells
same,CFU-S from spleen cells,"[5]; 144 ug/kg/d, 7 days",39 colonies per 10⁶ cells injected
same,Erythroid BFU-E colonies from spleen cells,"[5]; 144 ug/kg/d, 7 days",58 per 10⁶ cells
same,bone marrow BFU-E progenitors,"[5]; 144 ug/kg/d, 7 days",no change
same,bone marrow CFU-S,"[5]; 144 ug/kg/d, 7 days",not altered
same,increase of CFU-GM colonies from spleen cells vs. vehicle control,"[5]; 144 ug/kg/d, 7 days",3.6 fold
same,increase of CFU-GM colonies in bone marrow vs. vehicle control,"[5]; 144 ug/kg/d, 7 days",2 fold
same,increase of CFU-S from spleen cells vs. vehicle control,"[5]; 144 ug/kg/d, 7 days",2 fold
same,increase of erythroid BFU-E colonies from spleen cells vs. vehicle control,"[5]; 144 ug/kg/d, 7 days",2 fold
same,"differential peripheral white blood cell, hemocrit, bone marrow cellularity or spleen weights",[5]; 7-day infusion,not accompanied by a significant change
same,major organ toxic effects,"[5]; infused for 7 days, any of the doses employed",no major organ toxic effects
same,growth of transferred clones on secondary plates,normal human bone marrow,produced full-size colonies
same,colony morphology,[1]; 7 and 14 days of culture,primarily mixed granulocyte-macrophage and pure granulocyte colonies
same,lowest concentration at which colony stimulating activity was observed,[1]; 14 days of culture,10 pM
same,maximal effective concentration for stimulation of CFU-GM,"[1]; 14 days of culture, colonies of >= 50 cells scored",1 to 10 nM
same,concentration of maximum activation effect on neutrophil cytotoxicity of K562 target cells,K562 target cells,about 10⁻⁷ M
same,"% specific lysis, 7.5","K562 target cells; 10^-7M, 0.1 µM",-0.6%
same,"% specific lysis, column 15","K562 target cells; 10^-7M, 0.1 µM",0.3%
same,"% specific lysis, column 30","K562 target cells; 10^-7M, 0.1 µM",1.5%
same,"% specific lysis, 7.5","K562 target cells; 10^-8M, 0.01 µM",0.3%
same,"% specific lysis, column 15","K562 target cells; 10^-8M, 0.01 µM",1.0%
same,"% specific lysis, column 30","K562 target cells; 10^-8M, 0.01 µM",0.9%
same,% specific lysis at effector/target ratio 7.5,K562 target cells; [6],7.8%
same,% specific lysis at effector/target ratio 15,K562 target cells; [6],18.1%
same,% specific lysis at effector/target ratio 7.5,K562 target cells; [7],0%
same,% specific lysis at effector/target ratio 15,K562 target cells; [7],2.4%
same,% specific lysis at effector/target ratio 30,K562 target cells; [7],8.4%
same,% specific lysis at effector/target ratio 7.5,K562 target cells; [8],0%
same,% specific lysis at effector/target ratio 15,K562 target cells; [8],1.8%
same,% specific lysis at effector/target ratio 30,K562 target cells; [8],0.9%
same,% specific lysis at effector/target ratio 7.5,K562 target cells; [9],0.9%
same,% specific lysis at effector/target ratio 15,K562 target cells; [9],1.0%
same,% specific lysis at effector/target ratio 30,K562 target cells; [9],-0.8%
same,activation of neutrophil chemiluminescence,[3],potent activator
